In ChEMBL document CHEMBL3507680, “University of Dundee, Gates Library screen for HepG2 cell viability”:

Test: Human HepG2 cell viability assay in 384 well format
Type: toxicity, cell-based
Design: dose 125 nL, time 70.5 hour; concentration not given beside the values
Settings: HepG2 cells, read-out: Inhibition

Structure (SMILES)	cytotoxicity at 70.5 h [%]
O=C(CCn1cccn1)NCCOc1ccc2c(c1)OCO2	-6.03
O=C(CCOc1ccc(Cl)cc1)NCCCn1cccn1	23.1
N#Cc1cccnc1N1CCC(Nc2ccccc2)C1 (stereo unspecified)	-8.64
Cc1ccc(C(=O)NC2CCN(S(C)(=O)=O)CC2)c(=O)[nH]1	-14.3
Cc1nn(CC(=O)NCC2(C(N)=O)CCOCC2)c(C)c1Cl	-8.87
Cc1nn(C)c(Cl)c1C(=O)NCC1(C(N)=O)CCOCC1	-11.7
Cc1ncc2c(n1)CN(Cc1nc(-c3ccsc3)oc1C)CC2	-15.2
CC(C)NC(=O)CN(C)C(=O)c1csc(Cc2ccccc2F)n1	-6.85
Cc1nc(COC(=O)c2cccc3c2OCCO3)no1	23.5
N#CC1COCCN1C(=O)c1ccc2cc[nH]c2c1 (stereo unspecified)	-9.25
CC(C)NC(=O)CNC(=O)c1csc(Cc2ccccc2F)n1	-4.54
Cn1cc(CN2CCS(=O)(=O)C(C)(C)C2)cn1	-9.13
Cc1nc(COC(=O)c2cccnc2C)no1	-5.39
CCCC(C#N)NC(=O)c1sccc1CC (stereo unspecified)	-12.4
CCc1ncc2c(n1)CN(Cc1nc(-c3ccco3)oc1C)CC2	-7.47
COc1cc(NC2CCCN(c3ncccc3C#N)C2)cc(OC)c1 (stereo unspecified)	23
CCN(C)Cc1cccc(CNC(=O)CSCc2ccccn2)c1	-15.2
CC(NCc1cccc(NC(=O)C2CCCCC2)c1)c1cnn(C)c1 (stereo unspecified)	-9.44
CC(C)C(=O)Nc1cccc(CNC(=O)CSCc2ccccn2)c1	-11.7
CC(C(=O)NCC(C)(C)c1ccc2c(c1)OCCO2)n1cncn1 (stereo unspecified)	0.318
CC(CNS(N)(=O)=O)Oc1cccc(Cl)c1 (stereo unspecified)	-0.0153
O=C(NC1CCS(=O)(=O)C1)c1ccccc1SCc1cscn1 (stereo unspecified)	-9.17

Structure (SMILES)	cytotoxicity at 70.5 h [%]
O=C(NC1CCS(=O)(=O)C1)c1ccc(SCc2cscn2)cc1 (stereo unspecified)	-6.01
Cc1noc(C(C)Nc2ccc3oc(C(C)C)nc3c2)n1 (stereo unspecified)	1.64
CCc1ccsc1C(=O)N(C)CCc1ccncc1	-1.38
CCc1c(C(=O)N2CCOC(C)(C)C2)cnn1-c1ccccn1	-2.04
Cc1nnc(NC(=O)NCc2ccc(C)n2C)s1	13.4
CC(C)CC(C#N)NC(=O)CCNC(=O)C(C)(C)C (stereo unspecified)	2.87
Cc1ccc(C(=O)NCC(C)Cn2ccnc2C)c(=O)[nH]1 (stereo unspecified)	0.288
COCCS(=O)(=O)N(Cc1ccsc1)c1ccccc1	2.67
CC(CNS(C)(=O)=O)Oc1cccc(Cl)c1 (stereo unspecified)	3.7
Cn1ccnc1C(=O)NCCS(=O)(=O)c1ccc(C(C)(C)C)cc1	-3.28
CN(C)c1nc(CNC(=O)NC2COc3ccccc32)cs1 (stereo unspecified)	2.4
CSc1c[nH]nc1NS(=O)(=O)c1cc(F)ccc1C	-3.64
CN(C)C(=O)N1CCN(Cc2cnc(-c3ccsc3)s2)CC1	-11.7
O=C(CC1OCCc2ccccc21)NCC1(O)CCCCC1 (stereo unspecified)	-2.94
CC(C)CCC(=O)NC(C#N)CC(C)C (stereo unspecified)	3.54
Cc1ccc(-c2ncc(CN3CCN(C(=O)N(C)C)CC3)s2)o1	-7.74
CN(Cc1ccc(F)cc1F)Cc1cc2c(cc1Br)OCCO2	-6.67
Cc1ccc(CN(C(=O)NC2CCS(=O)(=O)C2)C2CC2)o1 (stereo unspecified)	-7.82
O=C(NCC1CCS(=O)(=O)C1)N(Cc1ccco1)C1CC1 (stereo unspecified)	-10.7
O=C(Cc1c(F)cccc1Cl)Nc1cccc(N2CCCC2)c1	-4.34
CCC(CNC(=O)CCn1cncn1)N1CCc2ccccc2C1 (stereo unspecified)	7.08
CCN(CC)C(CNC(=O)c1ccnc(N(C)C)c1)c1ccsc1 (stereo unspecified)	-5.28

Structure (SMILES)	cytotoxicity at 70.5 h [%]
Cc1ccc(-c2cc(CNC(=O)NC3CCCCNC3=O)on2)cc1 (stereo unspecified)	-8.17
Cc1ccc(CN(C(=O)NCC2CCCO2)C2CC2)o1 (stereo unspecified)	-9.69
CC(CNC(=O)CCn1cncn1)N1CCc2ccccc21 (stereo unspecified)	-1.72
CC(C)CC(=O)N1Cc2ccccc2CC1C(=O)Nc1nccs1 (stereo unspecified)	-8.5
CCc1ncc2c(n1)CN(c1nnc(C)c(C)c1C#N)CC2	5.31
CCOC(=O)C1(O)CCN(C(=O)Nc2cccc(CC)c2)CC1	-0.303
O=C(NCCc1ccncc1)c1cccc(S(=O)(=O)NC2CC2)c1	1.33
NC(=O)c1ccc(N2CCN(CCCc3cn[nH]c3)CC2)cc1	-0.688
Cc1ccc(C)n1-c1ccsc1C(=O)NCC(=O)N1CCCC1	-1.31
NC(=O)COc1cccc(CN2CCCC2c2ccc[nH]2)c1 (stereo unspecified)	-5.09
Cc1cc(NC(=O)N2CCCC(O)C2)nn1-c1ccccc1Cl (stereo unspecified)	-5.66
Cn1c(=O)ccn(CC(=O)NCC2Cc3ccccc3O2)c1=O (stereo unspecified)	-0.993
CCOCCOC(C)C(=O)Nc1ccc2[nH]c(C)cc2c1 (stereo unspecified)	-8.04
CCSCCC(=O)NCc1cnn(-c2ccc(F)cc2F)c1	7.31
CCS(=O)(=O)NC1CCCN(Cc2ccn(C)c(=O)c2)C1 (stereo unspecified)	-9.02
CCOCCOC(C)C(=O)Nc1ccc2c(ccn2CC)c1 (stereo unspecified)	-6.19
Cn1c(NCC(=O)N2CCCCC2)c(C#N)c(=O)n(C)c1=O	-11.6
CC(=O)N1CCN(C(=O)CCNc2snc(Cl)c2C#N)CC1	-10.6
CCC(=O)NCC(=O)NC(Cc1ccccc1)c1sccc1C (stereo unspecified)	-2.67
CC(=O)NC1(C(=O)N2CCC(Nc3cccnn3)CC2)CCCCC1	3.94
Cn1ccc(C(=O)N2CCCC(CNS(C)(=O)=O)C2)cc1=O (stereo unspecified)	-8.6
Cc1ccsc1C(Cc1ccccc1)NC(=O)CSCC(N)=O (stereo unspecified)	-4.76

Structure (SMILES)	cytotoxicity at 70.5 h [%]
O=C(CCC1CCCCO1)NCc1cnn(-c2ccc(F)cc2F)c1 (stereo unspecified)	8.18
Cc1ccc(NC(=O)N2CCCN(C(N)=O)CC2)s1	7.8
CN(C)CCSc1ccc(NC(=O)c2nccn3ccnc23)cc1	-2.14
O=C(N1CCN(CCO)CC1)C1(O)Cc2ccccc2C1	-4.44
O=C(N1CCSCC1)C1(O)Cc2ccccc2C1	-2.54
Cc1cc(C)c(S(=O)(=O)Nc2c(C)noc2C)cc1C(=O)O	-2.9
O=C(Cn1cccc2oc(=O)nc1-2)NCC1Cc2ccccc2O1 (stereo unspecified)	-5.36
O=C(N1CCN(c2ccccc2O)CC1)C1(O)Cc2ccccc2C1	0.667
CC(=O)c1ccc(C(=O)NCc2ccnc(N(C)C)n2)cc1	5.65
Fc1cccnc1N1CCC(NCc2cccc3cn[nH]c23)C1 (stereo unspecified)	3.51
Brc1ccc(C2(NCc3noc(C4CC4)n3)CCC2)cc1	2.53
CCC1CCC(N(Cc2cc(=O)n(C)c(=O)n2C)C2CC2)CC1 (stereo unspecified)	-5.27
CC(C)N1CCCC(N2CCOC3(CCCC3)C2)C1=O (stereo unspecified)	-7.02
CC(C)N1CCC(N2CCOC3(CCCC3)C2)C1=O (stereo unspecified)	-6.53
O=C(c1ccc(SC(F)(F)F)cc1)N1CCOCC1c1ncon1 (stereo unspecified)	-5.57
CC(CCc1ccccc1F)C(=O)NS(=O)(=O)N(C)C(C)C (stereo unspecified)	-12.3
CC1CCN(CCCNC(=O)C2CCCCC2)CC1	-5.79
CN(C1CCCCC1)S(=O)(=O)NC1CCCN(c2ncccn2)C1 (stereo unspecified)	-8.05
CC(SCC(=O)NCCC#N)c1ccc(Cl)cc1 (stereo unspecified)	-18.4
CC(C)(C)NC(=O)CN1CCNCC1	6.83
